From article PMC2828353 (Journal of inherited metabolic disease, 2008)

Target: T1, DMGDH (His6-DMGDH, mature human dimethylglycine dehydrogenase) (Homo sapiens, UniProt Q9UI17)
T1 sequence (Q9UI17 51-866): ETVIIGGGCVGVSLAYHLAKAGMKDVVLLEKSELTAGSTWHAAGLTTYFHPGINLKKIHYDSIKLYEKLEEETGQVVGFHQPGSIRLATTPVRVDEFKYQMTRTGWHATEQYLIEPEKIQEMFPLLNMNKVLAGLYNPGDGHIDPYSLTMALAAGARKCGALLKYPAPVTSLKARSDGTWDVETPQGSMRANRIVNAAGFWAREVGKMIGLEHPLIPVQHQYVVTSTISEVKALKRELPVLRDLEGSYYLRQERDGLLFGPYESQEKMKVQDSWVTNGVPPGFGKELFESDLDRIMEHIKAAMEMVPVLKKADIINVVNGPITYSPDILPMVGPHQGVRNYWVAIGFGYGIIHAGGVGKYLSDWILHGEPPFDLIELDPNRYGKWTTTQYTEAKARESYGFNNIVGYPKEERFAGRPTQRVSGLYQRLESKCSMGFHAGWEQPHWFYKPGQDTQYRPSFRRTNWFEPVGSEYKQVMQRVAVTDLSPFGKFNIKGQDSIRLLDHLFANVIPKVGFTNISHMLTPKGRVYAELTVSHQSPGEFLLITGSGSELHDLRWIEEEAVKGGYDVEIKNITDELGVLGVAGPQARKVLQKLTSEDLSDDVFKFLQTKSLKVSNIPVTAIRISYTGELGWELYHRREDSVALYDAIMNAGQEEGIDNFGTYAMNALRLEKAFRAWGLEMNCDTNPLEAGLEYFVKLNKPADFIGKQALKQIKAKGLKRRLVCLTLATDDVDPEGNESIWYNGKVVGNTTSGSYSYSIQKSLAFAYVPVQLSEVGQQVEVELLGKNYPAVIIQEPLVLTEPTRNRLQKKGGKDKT
Assay: ferricenium reduction at […] nm
Assay type: biochemical
Settings: dimethylglycine as substrate, Hepes pH 7.5, 25°C

% decrease in Vmax at 4 μmol/L: ~ 25%
SMILES: Nc1nc2c(c(=O)[nH]1)N[C@@H](CNc1ccc(C(=O)N[C@@H](CCC(=O)O)C(=O)O)cc1)CN2 [tetrahydrofolate]
